# Square brackets hold non-standard residues; d marks the D form. Peptide text beside a SMILES is read from it. Tic = O=C(O)[C@@H]1Cc2ccccc2CN1
# Tests used:
# Dipeptidyl peptidase 4 [1] = target: T1, Dipeptidyl peptidase 4 (Homo sapiens, UniProt P27487); test: Inhibitory concentration against Dipeptidyl peptidase IV (DPP IV)
# Target sequence in this assay (P27487 whole entry): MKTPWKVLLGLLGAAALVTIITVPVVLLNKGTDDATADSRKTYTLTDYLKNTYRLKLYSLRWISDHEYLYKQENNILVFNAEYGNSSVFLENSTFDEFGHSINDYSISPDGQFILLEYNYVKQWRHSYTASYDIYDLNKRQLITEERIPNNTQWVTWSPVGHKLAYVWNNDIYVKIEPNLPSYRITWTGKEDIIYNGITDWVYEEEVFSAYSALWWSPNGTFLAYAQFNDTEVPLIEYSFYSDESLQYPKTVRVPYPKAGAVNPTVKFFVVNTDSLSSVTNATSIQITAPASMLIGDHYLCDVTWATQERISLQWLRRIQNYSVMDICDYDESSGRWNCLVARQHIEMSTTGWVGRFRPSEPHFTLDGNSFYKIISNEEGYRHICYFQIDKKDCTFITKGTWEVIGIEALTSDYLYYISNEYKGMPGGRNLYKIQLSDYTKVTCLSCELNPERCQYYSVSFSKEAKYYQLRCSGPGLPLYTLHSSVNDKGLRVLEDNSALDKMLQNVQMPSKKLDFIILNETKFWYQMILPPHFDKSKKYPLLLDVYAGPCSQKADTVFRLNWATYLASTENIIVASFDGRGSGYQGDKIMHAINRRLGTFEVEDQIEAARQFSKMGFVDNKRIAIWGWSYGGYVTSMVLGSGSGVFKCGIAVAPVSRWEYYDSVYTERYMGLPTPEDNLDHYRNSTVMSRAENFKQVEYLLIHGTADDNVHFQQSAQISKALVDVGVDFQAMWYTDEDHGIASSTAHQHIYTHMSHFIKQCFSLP
# Dipeptidyl peptidase 4 [2] = target: T1, Dipeptidyl peptidase 4; test: Percent inhibition of Dipeptidyl peptidase IV (DPP IV) at a concentration of 10 uM
# Target sequence in this assay (P27487 whole entry, looked up): as the sequence (P27487 whole entry) above
# Dipeptidyl peptidase 4 [3] = target: T1, Dipeptidyl peptidase 4; test: Percent inhibition against Dipeptidylpeptidase IV (DPP IV) at a concentration of 10 uM
# Target sequence in this assay (P27487 whole entry, looked up): as the sequence (P27487 whole entry) above
# Dipeptidyl peptidase 4 [4] = target: T1, Dipeptidyl peptidase 4; test: Percent inhibition against Dipeptidyl peptidase IV (DPP IV) at a concentration of 1 uM
# Target sequence in this assay (P27487 whole entry, looked up): as the sequence (P27487 whole entry) above
SMILES,IC50 (Dipeptidyl peptidase 4 [1]) [µM],inhibition (Dipeptidyl peptidase 4 [2]) [%],inhibition (Dipeptidyl peptidase 4 [3]) [%],inhibition (Dipeptidyl peptidase 4 [4]) [%]
COc1c(O)cc2c(c1O)CN(C(=O)[C@@H](N)Cc1c[nH]c3ccccc13)[C@H](C(=O)N[C@@H](CC(CO)CO)C(=O)O)C2,–,–,7.7,–
N[C@@H](Cc1c[nH]c2ccccc12)C(=O)N1Cc2ccccc2C[C@H]1C(=O)O (H-Trp-[Tic]-OH),5.7,59,–,–
N[C@@H](Cc1c[nH]c2ccccc12)C(=O)N1Cc2ccccc2C[C@H]1C(=O)N[C@@H](CO)C(=O)O (H-Trp-[Tic]-Ser-OH),7.9,53,–,–
CC[C@H](C)[C@H](NC(=O)[C@H](Cc1c[nH]cn1)NC(=O)CNC(=O)[C@H](CCC(=O)O)NC(=O)[C@H](CCC(N)=O)NC(=O)[C@H](CC(=O)O)NC(=O)[C@H](CC(N)=O)NC(=O)[C@H](CCCN=C(N)N)NC(=O)[C@H](C)NC(=O)[C@@H]1Cc2ccccc2CN1C(=O)[C@@H](N)Cc1ccccc1)C(=O)N[C@@H](CC(C)C)C(=O)N[C@@H](CCCCN)C(=O)N[C@@H](CCSC)C(=O)N[C@@H](Cc1ccccc1)C(=O)N1CCC[C@H]1C(=O)N[C@@H](CO)C(=O)N[C@H](C(=O)N[C@@H](Cc1c[nH]c2ccccc12)C(=O)N[C@@H](Cc1ccc(O)cc1)C(=O)N[C@H](C(=O)O)C(C)C)[C@@H](C)O (H-F[Tic]ARNDQEGHILKMFPSTWYV-OH),–,–,–,4

# More lines, now with the values ahead:
IC50 (Dipeptidyl peptidase 4 [1]) [µM],inhibition (Dipeptidyl peptidase 4 [2]) [%],inhibition (Dipeptidyl peptidase 4 [3]) [%],inhibition (Dipeptidyl peptidase 4 [4]) [%],SMILES
7,62,–,–,N[C@@H](Cc1c[nH]c2ccccc12)C(=O)N1Cc2ccccc2C[C@H]1C(=O)N[C@@H](CCC(=O)O)C(=O)O (H-Trp-[Tic]-Glu-OH)
–,–,–,0,CC[C@H](C)[C@H](NC(=O)[C@H](Cc1c[nH]cn1)NC(=O)CNC(=O)[C@H](CCC(=O)O)NC(=O)[C@H](CCC(N)=O)NC(=O)[C@H](CC(=O)O)NC(=O)[C@H](CC(N)=O)NC(=O)[C@H](CCCN=C(N)N)NC(=O)[C@H](C)NC(=O)[C@@H]1Cc2ccccc2CN1C(=O)CN)C(=O)N[C@@H](CC(C)C)C(=O)N[C@@H](CCCCN)C(=O)N[C@@H](CCSC)C(=O)N[C@@H](Cc1ccccc1)C(=O)N1CCC[C@H]1C(=O)N[C@@H](CO)C(=O)N[C@H](C(=O)N[C@@H](Cc1c[nH]c2ccccc12)C(=O)N[C@@H](Cc1ccc(O)cc1)C(=O)N[C@H](C(=O)O)C(C)C)[C@@H](C)O (H-G[Tic]ARNDQEGHILKMFPSTWYV-OH)

# Reference: ChEMBL document CHEMBL1131542, “A potent dipeptide inhibitor of dipeptidyl peptidase IV” (Bioorg Med Chem Lett, 1998)
